Assays:
glucosidases = test: Glycosidase panel, glucosidases overall; assay type: biochemical; details: panel of glucosidases
Description: Glycosidase assays were conducted on Compounds 1 and 3 and an extract of Zizyphus used in the disaccharide loading mouse studies to determine if glucosidase inhibition might explain the effects on blood glucose. A panel of glycosidases were used to be sure any activity found was a selective inhibition and not just non-specific binding to the enzyme.
Glycosidase assays were conducted as described by Watson et al. (Phytochemistry 1997, 46, 255) using p-nitrophenyl-substrates (except sialidase which used methylumbeliferyl-N-acetyineuraminic acid as substrate). Assays were carried out in microtitre plates. Enzymes were assayed in 0.1 M citric acid/0.2 M di-sodium hydrogen phosphate (McIlvaine) buffers at the optimum pH for the enzyme. All assays were carried out at 20° C. All enzymes and substrates were purchased from Sigma Aldrich Chemicals Limited. The incubation mixture consisted of 10 μl of enzyme solution, 10 μl of the iminosugars solution and 50 μl of the appropriate 5 mM p-nitrophenyl substrate made up in McIlvaine buffer at the optimum pH for the enzyme. The reactions were stopped with 0.4 M glycine (pH 10.4) during the exponential phase of the reaction. Absorbances were read at 405 nm. Water was substituted for the alkaloids in the blanks. Reactions were carried out in triplicate. […]

α-L-fucosidase = molecular target: T1, α-L-fucosidase (Bos taurus, UniProt Q2KIM0); test: Glycosidase assay, p-nitrophenyl substrate; assay type: biochemical; details: Bovine kidney enzyme; screened at 0.14 mg mL−1 (footnote: 0.4 mM)
T1 construct: purchased Sigma Aldrich Chemicals Limited
T1 sequence (Q2KIM0 23-468): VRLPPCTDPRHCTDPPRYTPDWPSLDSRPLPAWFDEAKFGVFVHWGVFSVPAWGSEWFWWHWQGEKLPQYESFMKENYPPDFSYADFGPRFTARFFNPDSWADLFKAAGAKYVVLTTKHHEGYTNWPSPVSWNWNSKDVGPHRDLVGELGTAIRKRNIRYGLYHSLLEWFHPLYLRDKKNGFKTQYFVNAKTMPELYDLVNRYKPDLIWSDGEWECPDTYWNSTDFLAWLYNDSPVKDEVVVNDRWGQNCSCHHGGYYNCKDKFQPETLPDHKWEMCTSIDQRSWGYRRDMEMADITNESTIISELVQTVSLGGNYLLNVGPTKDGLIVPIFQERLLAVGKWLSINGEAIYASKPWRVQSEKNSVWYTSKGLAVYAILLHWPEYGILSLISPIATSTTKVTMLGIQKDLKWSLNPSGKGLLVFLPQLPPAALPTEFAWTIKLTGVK
Description: (§1) Glycosidase assays were conducted as described by Watson et al. (Phytochemistry 1997, 46, 255) using p-nitrophenyl-substrates (except sialidase which used methylumbeliferyl-N-acetyineuraminic acid as substrate). Assays were carried out in microtitre plates. Enzymes were assayed in 0.1 M citric acid/0.2 M di-sodium hydrogen phosphate (McIlvaine) buffers at the optimum pH for the enzyme. All assays were carried out at 20° C. All enzymes and substrates were purchased from Sigma Aldrich Chemicals Limited. The incubation mixture consisted of 10 μl of enzyme solution, 10 μl of the iminosugars solution and 50 μl of the appropriate 5 mM p-nitrophenyl substrate made up in McIlvaine buffer at the optimum pH for the enzyme. The reactions were stopped with 0.4 M glycine (pH 10.4) during the exponential phase of the reaction. Absorbances were read at 405 nm. Water was substituted for the alkaloids in the blanks. Reactions were carried out in triplicate.
(§2) Enzyme inhibitor solutions—Compounds were dissolved in distilled water at a concentration of 1 mg mL^−1 and then screened at a concentration of 0.14 mg mL^−1 after dilution of the 1 mg mL^−1 in the assay volumes of substrates.

[1] = test system: N-acetyl-β-D-glucosaminidase; test: Glycosidase assay, p-nitrophenyl substrate; assay type: biochemical; details: screened at 0.14 mg mL−1 (footnote: 0.4 mM)
Description: as §1, §2

α-D-mannosidase = molecular target: T2, α-D-mannosidase (Canavalia ensiformis, UniProt C0HJB3); test: Glycosidase assay, p-nitrophenyl substrate; assay type: biochemical; details: Jack bean enzyme; screened at 0.14 mg mL−1 (footnote: 0.4 mM)
T2 construct: purchased Sigma Aldrich Chemicals Limited
T2 sequence (C0HJB3 1-981): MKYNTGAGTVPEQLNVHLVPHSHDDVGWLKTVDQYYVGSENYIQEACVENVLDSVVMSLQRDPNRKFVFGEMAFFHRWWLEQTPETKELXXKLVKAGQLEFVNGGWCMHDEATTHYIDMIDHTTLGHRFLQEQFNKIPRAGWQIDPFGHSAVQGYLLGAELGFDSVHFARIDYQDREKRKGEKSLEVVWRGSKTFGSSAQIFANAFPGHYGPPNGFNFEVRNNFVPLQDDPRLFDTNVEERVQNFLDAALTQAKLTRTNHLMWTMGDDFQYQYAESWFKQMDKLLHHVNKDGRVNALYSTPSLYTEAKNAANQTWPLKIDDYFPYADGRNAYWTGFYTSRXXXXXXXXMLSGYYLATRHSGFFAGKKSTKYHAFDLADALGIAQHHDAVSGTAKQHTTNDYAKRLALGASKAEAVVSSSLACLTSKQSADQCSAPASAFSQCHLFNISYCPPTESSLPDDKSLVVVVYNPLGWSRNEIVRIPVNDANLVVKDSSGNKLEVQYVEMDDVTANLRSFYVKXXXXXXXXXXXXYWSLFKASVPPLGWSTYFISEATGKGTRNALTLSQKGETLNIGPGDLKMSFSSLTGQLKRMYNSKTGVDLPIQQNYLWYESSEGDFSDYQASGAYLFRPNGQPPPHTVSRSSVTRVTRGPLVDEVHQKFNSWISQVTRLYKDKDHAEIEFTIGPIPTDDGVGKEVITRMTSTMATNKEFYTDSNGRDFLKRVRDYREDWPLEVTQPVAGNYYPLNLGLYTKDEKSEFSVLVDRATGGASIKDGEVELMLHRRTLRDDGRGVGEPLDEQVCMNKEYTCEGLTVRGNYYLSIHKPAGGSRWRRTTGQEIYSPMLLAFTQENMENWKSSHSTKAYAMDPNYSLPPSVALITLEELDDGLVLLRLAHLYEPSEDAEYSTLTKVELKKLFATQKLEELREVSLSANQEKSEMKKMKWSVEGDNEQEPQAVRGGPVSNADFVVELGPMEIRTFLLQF
Description: as §1, §2

β-D-mannosidase = test: Glycosidase assay, p-nitrophenyl substrate; assay type: biochemical; details: Cellullomonas fimi enzyme; screened at 0.14 mg mL−1 (footnote: 0.4 mM)
Description: as §1, §2

α-D-glucosidase [2] = molecular target: T3, α-D-glucosidase (Saccharomyces cerevisiae, UniProt P53341); test: Glycosidase assay, p-nitrophenyl substrate; assay type: biochemical; details: Saccharomyces cerevisiae enzyme; screened at 0.14 mg mL−1 (footnote: 0.4 mM); 20° C
T3 construct: purchased Sigma Aldrich Chemicals Limited
Description: as §1, §2

[3] = molecular target: T4, N-acetyl-β-D-hexosaminidase (Aspergillus oryzae, UniProt Q8J2T0); test: Glycosidase assay, p-nitrophenyl substrate; assay type: biochemical; details: Aspergillus oryzae enzyme; screened at 0.14 mg mL−1 (footnote: 0.4 mM)
T4 construct: purchased Sigma Aldrich Chemicals Limited
Description: as §1, §2

Amyloglucosidase = molecular target: T5, Amyloglucosidase (Aspergillus niger, UniProt P69328); test: Glycosidase assay, p-nitrophenyl substrate; assay type: biochemical; details: Aspergillus niger enzyme; screened at 0.14 mg mL−1 (footnote: 0.4 mM)
T5 construct: purchased Sigma Aldrich Chemicals Limited
Description: as §1, §2

Naringinase = test: Glycosidase assay, p-nitrophenyl substrate; assay type: biochemical; details: Penicillium decumbens enzyme; screened at 0.14 mg mL−1 (footnote: 0.4 mM)
Description: as §1, §2

α-D-glucosidase [4] = test: Glycosidase assay, p-nitrophenyl substrate; assay type: biochemical; details: Bacillus sterothermphilus enzyme; screened at 0.14 mg mL−1 (footnote: 0.4 mM)
Description: as §1, §2

β-D-galactosidase = test: Glycosidase assay, p-nitrophenyl substrate; assay type: biochemical; details: Bovine liver enzyme; screened at 0.14 mg mL−1 (footnote: 0.4 mM)
Description: as §1, §2

α-D-galactosidase = molecular target: T6, α-D-galactosidase (Coffea arabica, UniProt Q42656); test: Glycosidase assay, p-nitrophenyl substrate; assay type: biochemical; details: Green coffee bean enzyme; screened at 0.14 mg mL−1 (footnote: 0.4 mM)
T6 construct: purchased Sigma Aldrich Chemicals Limited
Description: as §1, §2

β-D-glucosidase = test: Glycosidase assay, p-nitrophenyl substrate; assay type: biochemical; details: Almond enzyme; screened at 0.14 mg mL−1 (footnote: 0.4 mM)
Description: as §1, §2

α-D-glucosidase [5] = molecular target: T7, α-D-glucosidase (Oryza sativa subsp. japonica, UniProt Q653V7); test: Glycosidase assay, p-nitrophenyl substrate; assay type: biochemical; details: Rice enzyme; screened at 0.14 mg mL−1 (footnote: 0.4 mM)
T7 construct: purchased Sigma Aldrich Chemicals Limited
Description: as §1, §2

[6] = test system: sialidase (NanH from T. forsythia); test: Sialidase assay with MUNANA substrate; assay type: biochemical, Tannerella forsythia; details: 1 mM inhibitor, 2.5 nM sialidase, 0.1 mM MUNANA, pH 7.2
Description: (§3) Sialidase assays used 1 mM inhibitor (or water without inhibitor) and 2.5 nM sialidase (including NanH from T. forsythia) incubated in the presence of 0.1 mM methylumbeliferyl-N-acetylneuraminic acid, pH 7.2 in 20 mM sodium phosphate buffer. Reactions were stopped at 30 seconds and 60 seconds via addition of ph 10.5 60 mM sodium carbonate buffer. Release of fluorogenic MU was quantified by measuring fluorescence emission at 450 nm, excitation 350 nm. Percentage sialidase activity was expressed as the change in fluorescence between 30 seconds and 60 seconds compared to that of a reaction without inhibitor. Reactions were carried out in triplicate.
MU release can be used to quantify sialidase activity.
as §3, with “1” for “Sialidase assays used 1”, “forsythia) was” for “forsythia)”, “MUNANA,” for “methylumbeliferyl-N-acetylneuraminic acid,”, “7.2” for “7.2 in”, “Sodium Phosphate” for “sodium phosphate”

male ddy mouse [7] = test: Maltose loading test, blood glucose in mice; assay type: in vivo; details: oral maltose 2.5 g/kg, test sample 500 mg/kg body weight, mean n = 5
Description: (§4) The animal experimental protocols in this study were approved by the Animal Experiments Committee of the University of Toyama (S-2010 UH-2). Male ddy mice (29-33 g) after an overnight fast were used for acute disaccharide loading tests. Maltose (2.5 g/kg body weight) or Sucrose (2.5 g/kg body weight) as well as the test samples were dissolved in 0.9% NaCl solution and administered to mice via a stomach tube. A control group was loaded with saline only.
(§5) Blood samples for glucose measurements were obtained from the tail vein at 0, 15, 30, 60, and 120 min after disaccharide-loading. The blood glucose levels were measured by a portable kit, Antsence II™ (Sankyo Co. Ltd. Tokyo, Japan). The Zizyphus extract HS0810/142/41 as well as the purified compounds were tested in this way.

male ddy mouse [8] = test: Sucrose loading test, blood glucose in mice; assay type: in vivo; details: oral sucrose 2.5 g/kg, test sample 500 mg/kg body weight, mean n = 5
Description: as §4, §5

T4 sequence (Q8J2T0 97-600): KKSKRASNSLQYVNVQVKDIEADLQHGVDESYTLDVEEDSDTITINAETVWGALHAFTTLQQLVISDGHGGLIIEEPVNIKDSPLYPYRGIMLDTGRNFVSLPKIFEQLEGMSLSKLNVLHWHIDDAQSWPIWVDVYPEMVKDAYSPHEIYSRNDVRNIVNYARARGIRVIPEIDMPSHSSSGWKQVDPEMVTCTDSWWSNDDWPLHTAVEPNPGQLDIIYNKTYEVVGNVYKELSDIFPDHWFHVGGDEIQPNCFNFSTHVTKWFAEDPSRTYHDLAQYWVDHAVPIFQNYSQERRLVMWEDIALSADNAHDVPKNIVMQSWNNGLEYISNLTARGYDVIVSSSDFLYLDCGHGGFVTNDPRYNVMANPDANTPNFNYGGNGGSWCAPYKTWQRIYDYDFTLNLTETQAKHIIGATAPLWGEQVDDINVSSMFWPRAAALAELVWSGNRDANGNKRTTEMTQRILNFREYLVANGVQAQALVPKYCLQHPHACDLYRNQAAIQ
T6 sequence (Q42656 16-378): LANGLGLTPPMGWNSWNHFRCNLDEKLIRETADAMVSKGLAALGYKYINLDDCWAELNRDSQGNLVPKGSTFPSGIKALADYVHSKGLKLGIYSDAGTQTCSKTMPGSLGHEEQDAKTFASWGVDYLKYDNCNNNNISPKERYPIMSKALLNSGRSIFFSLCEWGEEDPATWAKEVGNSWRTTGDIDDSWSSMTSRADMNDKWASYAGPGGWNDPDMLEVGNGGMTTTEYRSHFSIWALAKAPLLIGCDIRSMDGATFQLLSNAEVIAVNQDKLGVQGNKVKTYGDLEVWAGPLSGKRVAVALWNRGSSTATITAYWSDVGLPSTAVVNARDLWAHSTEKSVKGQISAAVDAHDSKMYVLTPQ
T7 sequence (Q653V7 34-885): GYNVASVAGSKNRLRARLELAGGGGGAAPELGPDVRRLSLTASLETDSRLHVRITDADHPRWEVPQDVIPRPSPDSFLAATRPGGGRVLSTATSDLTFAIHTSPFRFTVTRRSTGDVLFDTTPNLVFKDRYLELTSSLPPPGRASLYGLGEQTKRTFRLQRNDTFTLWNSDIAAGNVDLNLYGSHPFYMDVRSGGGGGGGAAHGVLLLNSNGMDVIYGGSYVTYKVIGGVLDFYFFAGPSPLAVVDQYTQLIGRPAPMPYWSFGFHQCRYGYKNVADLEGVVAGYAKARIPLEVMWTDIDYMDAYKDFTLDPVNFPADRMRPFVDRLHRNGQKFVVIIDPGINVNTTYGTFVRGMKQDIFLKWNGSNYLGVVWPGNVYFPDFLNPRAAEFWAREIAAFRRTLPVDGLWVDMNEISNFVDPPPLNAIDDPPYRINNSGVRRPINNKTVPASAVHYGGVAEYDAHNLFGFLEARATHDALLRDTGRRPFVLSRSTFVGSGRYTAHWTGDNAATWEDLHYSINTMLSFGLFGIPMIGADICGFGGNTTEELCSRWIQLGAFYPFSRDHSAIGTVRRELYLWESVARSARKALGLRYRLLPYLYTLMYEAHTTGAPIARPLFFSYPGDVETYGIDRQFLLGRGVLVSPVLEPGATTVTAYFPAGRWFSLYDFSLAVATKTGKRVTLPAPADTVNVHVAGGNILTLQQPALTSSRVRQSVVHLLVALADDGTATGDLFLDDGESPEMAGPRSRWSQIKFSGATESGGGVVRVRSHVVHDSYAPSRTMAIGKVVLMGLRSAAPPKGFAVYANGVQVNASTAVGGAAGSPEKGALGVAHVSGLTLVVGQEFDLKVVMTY
T3 sequence (P53341 whole entry): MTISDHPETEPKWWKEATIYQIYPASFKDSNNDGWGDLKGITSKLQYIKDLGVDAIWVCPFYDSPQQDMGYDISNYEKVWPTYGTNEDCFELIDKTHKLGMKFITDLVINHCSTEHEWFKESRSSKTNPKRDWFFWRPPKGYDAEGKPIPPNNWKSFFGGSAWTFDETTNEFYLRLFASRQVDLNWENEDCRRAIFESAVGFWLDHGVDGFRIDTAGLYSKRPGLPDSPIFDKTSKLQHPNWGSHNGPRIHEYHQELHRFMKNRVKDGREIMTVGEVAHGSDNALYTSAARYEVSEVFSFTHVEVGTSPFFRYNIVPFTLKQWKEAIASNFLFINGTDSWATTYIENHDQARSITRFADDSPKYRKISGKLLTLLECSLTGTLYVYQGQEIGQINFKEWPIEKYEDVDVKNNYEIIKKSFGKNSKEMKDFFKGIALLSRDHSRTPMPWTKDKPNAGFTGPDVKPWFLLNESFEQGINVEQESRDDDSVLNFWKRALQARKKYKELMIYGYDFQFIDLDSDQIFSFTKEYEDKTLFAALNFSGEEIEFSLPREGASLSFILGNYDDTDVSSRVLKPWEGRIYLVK
T5 sequence (P69328 25-640): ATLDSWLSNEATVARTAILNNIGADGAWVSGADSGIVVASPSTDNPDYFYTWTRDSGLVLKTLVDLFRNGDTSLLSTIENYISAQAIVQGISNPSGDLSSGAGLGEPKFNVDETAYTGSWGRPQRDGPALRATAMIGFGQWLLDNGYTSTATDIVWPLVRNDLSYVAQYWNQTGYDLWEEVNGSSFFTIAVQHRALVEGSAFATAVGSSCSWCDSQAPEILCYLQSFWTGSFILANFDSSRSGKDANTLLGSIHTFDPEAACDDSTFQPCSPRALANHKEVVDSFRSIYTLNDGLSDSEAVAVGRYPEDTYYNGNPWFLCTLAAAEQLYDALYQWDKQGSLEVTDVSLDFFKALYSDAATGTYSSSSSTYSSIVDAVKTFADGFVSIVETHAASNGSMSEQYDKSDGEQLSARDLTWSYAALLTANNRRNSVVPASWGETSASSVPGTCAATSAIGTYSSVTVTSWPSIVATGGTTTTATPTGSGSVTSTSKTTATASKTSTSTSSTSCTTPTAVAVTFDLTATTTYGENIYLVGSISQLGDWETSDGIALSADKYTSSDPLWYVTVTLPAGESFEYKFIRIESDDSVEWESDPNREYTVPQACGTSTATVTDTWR

SMILES	% inhibition (α-L-fucosidase)	% inhibition (α-D-mannosidase)	% inhibition (α-D-glucosidase [2])	% inhibition [3]	% inhibition (α-D-galactosidase)	% inhibition (α-D-glucosidase [5])	blood glucose (male ddy mouse [7]; 0 min after administration)	blood glucose (male ddy mouse [7]; 15 min after administration)	blood glucose (male ddy mouse [7]; 30 min after administration)	blood glucose (male ddy mouse [7]; 60 min after administration)	blood glucose (male ddy mouse [7]; 120 min after administration)	other results
OC[C@H]1NC[C@H](O)[C@@H](O)[C@@H]1O [DNJ, 1-deoxynojirimycin]	5.86%	26.65%	35.67%	−5.50%	−3.34%	99.56%	–	–	–	–	–	glucosidase inhibition (in words) (glucosidases): expected strong inhibition of various glucosidases; % inhibition ([1]; Bovine kidney enzyme): −0.83%; % inhibition ([1]; Jack bean enzyme): 2.76%; % inhibition (β-D-mannosidase): −19.03%; % inhibition (Amyloglucosidase): 31.71%; % inhibition (Naringinase): 20.81%; % inhibition (α-D-glucosidase [4]): 99.48%; % inhibition (β-D-galactosidase): 0.45%; % inhibition (β-D-glucosidase): 63.7%; % inhibition [6]: 2%
CN1C[C@@H](CO)C[C@H]1C(=O)O [Compound 1, N-methyl-4S-(hydroxymethyl)-2S-pyrrolidinecarboxylic acid]	15%	18%	<5%	−6%	<5%	5%	83 mg/dL	231 mg/dL	187 mg/dL	140 mg/dL	74 mg/dL	–
CN1C[C@](O)(CO)C[C@H]1C(=O)O [Compound 3, N-methyl-4-hydroxy-4S-(hydroxymethyl)-2S-pyrrolidinecarboxylic acid]	–	6%	<5%	−6%	<5%	11%	83 mg/dL	233 mg/dL	185 mg/dL	130 mg/dL	80 mg/dL	blood glucose (male ddy mouse [8]; 0 min after administration): 109 mg/dL; blood glucose (male ddy mouse [8]; 15 min after administration): 183 mg/dL; blood glucose (male ddy mouse [8]; 30 min after administration): 143 mg/dL; blood glucose (male ddy mouse [8]; 60 min after administration): 106 mg/dL; blood glucose (male ddy mouse [8]; 120 min after administration): 80 mg/dL

From patent publication US20260078089A1, “BIOACTIVE PHYTOCHEMICALS IN ZIZYPHUS AND GUARANA” (Phytoquest Limited, priority 2018, published 2026)
